According to patent US20200216416A1, “QUINOLINE COMPOUNDS AS INHIBITORS OF TAM AND MET KINASES” (Array BioPharma Inc., priority 2019, published 2020):

Experiments:
human MET kinase Y1230H = biological target: T1, human MET kinase Y1230H (Homo sapiens, UniProt P08581, Y1230H); test: c-Met Enzyme Assay, Y1230H mutant; type: binding; conditions: averaged IC50; Y1230H 5 nM; 60-minute incubation at 22° C.; read-out: Y1230 H IC50
T1 construct: GST-tagged recombinant human MET kinase domain; purchased Signal Chem
T1 sequence (P08581 1078-1345 Y1230H): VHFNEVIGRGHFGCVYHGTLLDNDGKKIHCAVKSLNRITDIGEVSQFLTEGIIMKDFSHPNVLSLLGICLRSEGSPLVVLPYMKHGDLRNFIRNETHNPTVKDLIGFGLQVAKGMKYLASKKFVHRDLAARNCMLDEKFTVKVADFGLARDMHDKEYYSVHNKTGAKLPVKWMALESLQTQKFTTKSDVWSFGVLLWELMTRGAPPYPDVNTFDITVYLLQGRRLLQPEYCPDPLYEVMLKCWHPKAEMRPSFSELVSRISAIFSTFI
Description: (§1) The affinity of compound binding to wild type and mutant human MET kinases was measured using Invitrogen's LanthaScreen™ Eu Kinase Binding technology. Briefly, GST-tagged recombinant human MET kinase domain from Signal Chem (see Table 8 below for concentration in assay) was incubated with 50 nM Alexa-Fluor® Tracer 236 (Invitrogen Cat No. PR9078A) and 2 nM Europium-anti-GST (Invitrogen Cat. No. A15116) along with test compound in a buffer consisting of 25 mM HEPES, pH 7.4, 10 mM MgCl2, 0.01% Triton X-100, 1mM DTT, and 2% DMSO. Compounds were typically prepared in a three-fold serial dilution in DMSO and added to the assay to give the appropriate final concentration. After a 60-minute incubation at 22° C., the reaction was measured using a PerkinElmer EnVision multimode plate reader via TR-FRET dual wavelength detection, and the percent of control (POC) calculated using a ratiometric emission factor. […] The POC values were fit to a 4 parameter logistic curve and the IC50 value is point where the curve crosses 50 POC.

[1] = biological target: T2, MET (wt) GST-tagged recombinant human MET kinase domain (Homo sapiens, UniProt P08581); test: c-Met Enzyme Assay, wild type (LanthaScreen Eu Kinase Binding); conditions: averaged IC50; MET (wt) 10 nM; 60-minute incubation at 22° C.; read-out: SigChem WT IC50
T2 construct: GST-tagged recombinant human MET kinase domain; purchased Signal Chem
T2 sequence (P08581 1078-1345 limits assumed): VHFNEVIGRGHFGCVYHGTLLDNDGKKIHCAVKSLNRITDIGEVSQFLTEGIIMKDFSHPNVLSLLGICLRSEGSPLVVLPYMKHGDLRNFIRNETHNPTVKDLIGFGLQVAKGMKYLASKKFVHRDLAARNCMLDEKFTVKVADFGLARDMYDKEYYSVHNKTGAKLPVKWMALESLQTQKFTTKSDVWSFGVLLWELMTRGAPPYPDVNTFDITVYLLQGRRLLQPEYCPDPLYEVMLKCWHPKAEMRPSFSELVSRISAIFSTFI
Description: as §1

human MET kinase L1195V = biological target: T3, human MET kinase L1195V (Homo sapiens, UniProt P08581, L1195V); test: c-Met Enzyme Assay, L1195V mutant; type: binding; conditions: averaged IC50; L1195V 10 nM; 60-minute incubation at 22° C.
T3 construct: GST-tagged recombinant human MET kinase domain; purchased Signal Chem
T3 sequence (P08581 1078-1345 L1195V limits assumed): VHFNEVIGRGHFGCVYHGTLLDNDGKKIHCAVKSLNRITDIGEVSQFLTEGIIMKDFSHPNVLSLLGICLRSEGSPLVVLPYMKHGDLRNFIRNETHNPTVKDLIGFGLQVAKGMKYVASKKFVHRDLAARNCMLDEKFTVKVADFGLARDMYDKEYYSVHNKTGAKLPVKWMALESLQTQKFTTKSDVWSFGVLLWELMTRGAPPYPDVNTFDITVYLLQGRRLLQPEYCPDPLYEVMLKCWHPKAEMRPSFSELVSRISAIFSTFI
Description: as §1

human MET kinase D1228N = biological target: T4, human MET kinase D1228N (Homo sapiens, UniProt P08581, D1228N); test: c-Met Enzyme Assay, D1228N mutant; type: binding; conditions: averaged IC50; D1228N 2 nM; 60-minute incubation at 22° C.; read-out: D1228 N IC50
T4 construct: GST-tagged recombinant human MET kinase domain; purchased Signal Chem
T4 sequence (P08581 1078-1345 D1228N): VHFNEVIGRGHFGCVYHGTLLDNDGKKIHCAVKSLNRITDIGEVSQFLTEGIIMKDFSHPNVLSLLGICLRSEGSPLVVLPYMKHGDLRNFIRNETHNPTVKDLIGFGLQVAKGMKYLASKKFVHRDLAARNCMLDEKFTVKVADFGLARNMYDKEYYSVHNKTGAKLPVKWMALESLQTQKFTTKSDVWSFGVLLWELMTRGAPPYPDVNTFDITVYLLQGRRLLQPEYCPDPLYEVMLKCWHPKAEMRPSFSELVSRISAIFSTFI
Description: as §1

[2] = biological target: T5, His-tagged recombinant human MER cytoplasmic domain (Homo sapiens, UniProt Q12866); test: MER Enzyme Assay (LanthaScreen Eu Kinase Binding); conditions: averaged IC50; MER 5 nM; 60-minute incubation at 22° C.; TR-FRET
T5 construct: His-tagged recombinant human MER cytoplasmic domain
T5 sequence (Q12866 527-999 limits assumed): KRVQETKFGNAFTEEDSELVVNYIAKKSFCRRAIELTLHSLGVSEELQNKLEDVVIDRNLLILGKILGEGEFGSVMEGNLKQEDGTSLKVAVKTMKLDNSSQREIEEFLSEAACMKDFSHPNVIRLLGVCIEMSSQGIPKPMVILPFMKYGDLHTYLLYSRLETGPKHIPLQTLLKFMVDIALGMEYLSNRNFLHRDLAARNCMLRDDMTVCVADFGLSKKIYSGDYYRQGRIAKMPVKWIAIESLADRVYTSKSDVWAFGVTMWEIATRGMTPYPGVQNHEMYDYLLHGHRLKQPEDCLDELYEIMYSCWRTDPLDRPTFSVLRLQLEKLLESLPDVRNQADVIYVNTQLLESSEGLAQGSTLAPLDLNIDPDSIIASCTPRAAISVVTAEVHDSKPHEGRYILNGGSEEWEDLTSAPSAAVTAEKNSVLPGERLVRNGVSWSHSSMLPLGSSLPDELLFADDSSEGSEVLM
Description: Compounds disclosed herein were screened for their ability to inhibit […] kinase using Invitrogen's LanthaScreen™Eu Kinase Binding technology. His-tagged recombinant human MER cytoplasmic domain (5 nM) was incubated with 20 nM Alexa-Fluor® Tracer 236 (PR9078A), 2 nM biotinylated anti-His (Cat. No. M4408), and 2 nM europium-labeled Streptavidin (Cat. No. PV5899) along with test compound in a buffer consisting of 25 mM HEPES, pH 7.4, 10 mM MgCl 2, 0.01% Triton X-100, and 2% DMSO. Compounds were typically prepared in a threefold serial dilution in DMSO and added to the assay to give the appropriate final concentration. After a 60-minute incubation at 22° C., the reaction was measured using a PerkinElmer EnVision multimode plate reader via TR-FRET dual wavelength detection, and the percent of control (POC) was calculated using a ratiometric emission factor. […] The POC values are fit to a 4 parameter logistic curve and the IC50 value is point where the curve crosses 50 POC.

human MET kinase D1228H = biological target: T6, human MET kinase D1228H (Homo sapiens, UniProt P08581, D1228H); test: c-Met Enzyme Assay, D1228H mutant; type: binding; conditions: averaged IC50; D1228H 2 nM; 60-minute incubation at 22° C.; read-out: D1228 H IC50
T6 construct: GST-tagged recombinant human MET kinase domain; purchased Signal Chem
T6 sequence (P08581 1078-1345 D1228H): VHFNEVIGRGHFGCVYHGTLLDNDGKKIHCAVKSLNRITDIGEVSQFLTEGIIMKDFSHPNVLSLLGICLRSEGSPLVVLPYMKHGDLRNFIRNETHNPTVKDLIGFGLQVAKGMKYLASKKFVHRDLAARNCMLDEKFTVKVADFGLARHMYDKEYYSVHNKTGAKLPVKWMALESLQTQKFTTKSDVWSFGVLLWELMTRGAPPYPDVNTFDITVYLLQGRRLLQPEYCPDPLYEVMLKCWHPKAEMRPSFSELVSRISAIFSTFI
Description: as §1

[3] = biological target: T7, human MET kinase del Ex14 (Homo sapiens, UniProt P08581, DEL963-1009); test: c-Met Enzyme Assay, del Ex14 mutant; type: binding; conditions: averaged IC50; del Ex14 5 nM; 60-minute incubation at 22° C.; read-out: Del14 IC50
T7 construct: GST-tagged recombinant human MET kinase domain; purchased Signal Chem
T7 sequence (P08581 with tags, fused parts or gaps DEL963-1009 limits assumed): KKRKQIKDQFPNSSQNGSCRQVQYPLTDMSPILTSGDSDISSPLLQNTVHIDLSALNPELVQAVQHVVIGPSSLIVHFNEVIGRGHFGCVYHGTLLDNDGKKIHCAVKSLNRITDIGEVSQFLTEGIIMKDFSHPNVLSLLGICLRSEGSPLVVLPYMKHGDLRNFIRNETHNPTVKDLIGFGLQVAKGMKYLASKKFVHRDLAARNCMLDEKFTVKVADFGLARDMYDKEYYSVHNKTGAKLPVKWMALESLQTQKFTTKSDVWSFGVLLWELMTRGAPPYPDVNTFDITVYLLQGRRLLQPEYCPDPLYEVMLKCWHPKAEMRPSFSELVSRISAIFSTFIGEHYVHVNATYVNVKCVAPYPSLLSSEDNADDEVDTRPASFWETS
Description: as §1

human MET kinase Y1230C = biological target: T8, human MET kinase Y1230C (Homo sapiens, UniProt P08581, Y1230C); test: c-Met Enzyme Assay, Y1230C mutant; type: binding; conditions: averaged IC50; Y1230C 2 nM; 60-minute incubation at 22° C.; read-out: Y1230 C IC50
T8 construct: GST-tagged recombinant human MET kinase domain; purchased Signal Chem
T8 sequence (P08581 1078-1345 Y1230C): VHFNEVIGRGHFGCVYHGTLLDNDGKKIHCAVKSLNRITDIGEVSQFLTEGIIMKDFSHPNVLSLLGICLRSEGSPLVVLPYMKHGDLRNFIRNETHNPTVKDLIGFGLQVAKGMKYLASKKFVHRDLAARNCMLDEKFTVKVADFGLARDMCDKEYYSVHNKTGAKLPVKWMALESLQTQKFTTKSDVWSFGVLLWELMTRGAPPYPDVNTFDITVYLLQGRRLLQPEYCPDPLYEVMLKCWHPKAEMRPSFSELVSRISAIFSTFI
Description: as §1

human MET kinase F1200I = biological target: T9, human MET kinase F1200I (Homo sapiens, UniProt P08581, F1200I); test: c-Met Enzyme Assay, F1200I mutant; type: binding; conditions: averaged IC50; F1200I 2 nM; 60-minute incubation at 22° C.
T9 construct: GST-tagged recombinant human MET kinase domain; purchased Signal Chem
T9 sequence (P08581 1078-1345 F1200I limits assumed): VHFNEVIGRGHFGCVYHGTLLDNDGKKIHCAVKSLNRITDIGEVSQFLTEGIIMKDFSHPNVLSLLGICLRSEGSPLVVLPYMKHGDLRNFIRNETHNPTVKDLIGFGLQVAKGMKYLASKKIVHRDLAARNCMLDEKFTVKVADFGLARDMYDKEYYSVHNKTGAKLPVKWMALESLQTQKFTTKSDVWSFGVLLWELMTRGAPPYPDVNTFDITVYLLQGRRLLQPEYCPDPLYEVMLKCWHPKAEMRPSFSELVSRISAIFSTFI
Description: as §1

Structure (SMILES) | IC50 (human MET kinase Y1230H) [nM] | IC50 [1] [nM] | IC50 (human MET kinase L1195V) [nM] | IC50 (human MET kinase D1228N) [nM] | IC50 [2] [nM] | IC50 (human MET kinase D1228H) [nM] | IC50 [3] [nM] | IC50 (human MET kinase Y1230C) [nM] | IC50 (human MET kinase F1200I) [nM]
COc1cc2nccc(Oc3ccc(NC(=O)c4cn(CC(C)C)cc(-c5ccc(F)cc5)c4=O)nc3)c2cc1OC [Example 11, N-(5-((6,7-dimethoxyquinolin-4-yl)oxy)pyridin-2-yl)-5-(4-fluorophenyl)-1-isobutyl-4-oxo-1,4-dihydropyridine-3-carboxamide] | 9.3 | 7.8 | 21.4 | 9.4 | 16 | 6.5 | 7.7 | 6.5 | 6.9
COc1cc2nccc(Oc3ccc(NC(=O)c4cn(C5CCOCC5)cc(-c5ccc(F)cc5)c4=O)nc3)c2cc1OC [Example 12, N-(5((6,7-dimethoxyquinolin-4-yl)oxy)pyridin-2-yl)-5-(4-fluorophenyl)-4-oxo-1-(tetrahydro-2H-pyran-4-yl)-1,4-dihydropyridine-3-carboxamide] | 5.4 | 5.4 | 33 | 9.7 | 4 | 8.4 | 5.6 | 5.5 | 7
COc1cc2nccc(Oc3ccc(NC(=O)c4cn(CC(=O)N(C)C)cc(-c5ccc(F)cc5F)c4=O)nc3)c2cc1OC [Example 13, 5-(2,4-difluorophenyl)-N-(5((6,7-dimethoxyquinolin-4-yl)oxy)pyridin-2-yl)-1-(2-(dimethylamino)-2-oxoethyl)-4-oxo-1,4-dihydropyridine-3-carboxamide] | 5.7 | 3.4 | 83.8 | 11.6 | 5 | 4.4 | 4.9 | 3.3 | 4.8
COc1cc2nccc(Oc3ccc(NC(=O)c4cn(CC(=O)N5CCCC5)cc(-c5ccc(F)cc5F)c4=O)nc3)c2cc1OC [Example 14] | 22.3 | 7.7 | 187 | 30.6 | 12 | 35.4 | 15.9 | 5.5 | 12.4
COc1cc2nccc(Oc3ccc(NC(=O)c4cn(CC(=O)N5CCOCC5)cc(-c5ccc(F)cc5F)c4=O)nc3)c2cc1OC [Example 15, 5-(2,4-difluorophenyl)-N-(5-((6,7-dimethoxyquinolin-4-yl)oxy)pyridin-2-yl)-1-(2-morpholino-2-oxoethyl)-4-oxo-1,4-dihydropyridine-3-carboxamide] | 37.5 | 33.8 | 61.4 | 73.7 | 29 | 99.1 | 29.5 | 66.8 | 24.4
CCC(CC)n1cc(C(=O)Nc2ccc(Oc3ccnc4cc(OC)c(OC)cc34)cn2)c(=O)c(-c2ccc(F)cc2F)c1 [Example 16, 5-(2,4-difluorophenyl)-N-(5-((6,7-dimethoxyquinolin-4yl)oxy)pyridin-2-yl)-4-oxo-1-(pentan-3-yl)-1,4-dihydropyridine-3-carboxamide] | 7.7 | 6.1 | 34.6 | 8.1 | 9 | 5.4 | 4.6 | 6.1 | 6.8
CCCC(CCC)n1cc(C(=O)Nc2ccc(Oc3ccnc4cc(OC)c(OC)cc34)cn2)c(=O)c(-c2ccc(F)cc2F)c1 [Example 17, 5-(2,4-difluorophenyl)-N-(5-((6,7-dimethoxyquinolin-4yl)oxy)pyridin-2-yl)-1-(heptan-4-yl)-4-oxo-1,4-dihydropyridine-3-carboxamide] | 26.9 | 17.8 | 82.6 | 25 | 52 | 13.3 | 17.1 | 15.5 | 23.4

Second part, the compound after the results:

IC50 (human MET kinase Y1230H) [nM] | IC50 [1] [nM] | IC50 (human MET kinase L1195V) [nM] | IC50 (human MET kinase D1228N) [nM] | IC50 [2] [nM] | IC50 (human MET kinase D1228H) [nM] | IC50 [3] [nM] | IC50 (human MET kinase Y1230C) [nM] | IC50 (human MET kinase F1200I) [nM] | Structure (SMILES)
4.6 | 2.7 | 21.4 | 4.7 | 2 | 2.4 | 3.2 | 2.4 | 4.3 | COc1cc2nccc(Oc3ccc(NC(=O)c4cn(C(C)C)cc(-c5ccc(F)cc5Cl)c4=O)nc3)c2cc1OC [Example 18, 5-(2-chloro-4-fluorophenyl)-N-(5-((6,7-dimethoxyquinolin-4-yl)oxy)pyridin-2-yl)-1-isopropyl-4-oxo-1,4-dihydropyridine-3-carboxamide]
2.7 | 1.8 | 10 | 3.6 | 2 | 1.6 | 1.9 | 2 | 2.8 | COc1cc2nccc(Oc3ccc(NC(=O)c4cn(C(C)C)cc(-c5ccc(F)cc5C)c4=O)nc3)c2cc1OC [Example 19, N-(5-((6,7-dimethoxyquinolin-4yl)oxy)pyridin-2-yl)-5-(4-fluoro-2-methylphenyl)-1-isopropyl-4-oxo-1,4-dihydropyridine-3-carboxamide]
9.9 | 5.2 | 58.1 | 10.4 | 3 | 9.9 | 3.8 | 7.7 | 5.1 | COc1cc(-c2cn(C(C)C)cc(C(=O)Nc3ccc(Oc4ccnc5cc(OC)c(OC)cc45)cn3)c2=O)ccc1F [Example 20, N-(5-((6,7-dimethoxyquinolin-4yl)oxy)pyridin-2-yl)-5-(4-fluoro-3-methoxyphenyl)-1-isopropyl-4-oxo-1,4-dihydropyridine-3-carboxamide]
51.3 | 13.5 | 77.7 | 31 | 10 | 18.7 | 13.6 | 20.4 | 16.2 | COc1cc2nccc(Oc3ccc(NC(=O)c4cn(C(C)C)cc(-c5ccc(F)c(Cl)c5)c4=O)nc3)c2cc1OC [Example 21, 5-(3-chloro-4-fluorophenyl)-N-(5-((6,7-dimethoxyquinolin-4-yl)oxy)pyridin-2-yl)-1-isopropyl-4-oxo-1,4-dihydropyridine-3-carboxamide]
4.3 | 1.8 | 17.7 | 6.5 | 3 | 4.2 | 3.1 | 2 | 2.5 | CNC(=O)Cn1cc(C(=O)Nc2ccc(Oc3ccnc4cc(OC)c(OC)cc34)cn2)c(=O)c(-c2ccc(F)cc2)c1 [Example 22]
